In brackets after ≈: the same amount, converted by molar mass.

In data set [1] the target is A1 receptor (Rattus norvegicus (Rat), UniProt P25099). Briefly: A1 receptor GTP shift binding assay with rat brain membranes and [3H]DPCPX. Particulars: rat brain membranes, 0.4 nM [3H]DPCPX, presence and absence of 1 mM GTP. How it is done: B-6. GTP Shift Experiment
Preparation of the Brain Membrane
The brains of male Wistar rats are removed and immediately transferred into an ice-cooled 0.32 mol/l sucrose solution. The tissue is comminuted using a glass-Teflon homogenizer and then centrifuged (1000×g for 10 minutes). The supernatant is then ultracentrifuged at 30 000 g for 30 minutes. The pellet obtained in this manner is resuspended in 10 ml of water and allowed to stand on ice for 30 minutes. After a final centrifugation step at 48 000 g for 10 min, the membranes are resuspended in 50 mmol/l Tris-HCl buffer, pH 7.4, and incubated with 2 U/ml of adenosine deaminase at 37° C. for 30 min. This is followed by a protein determination according to Bradford. The membranes are frozen in small aliquots and stored at −80° C. until required for the binding assay.
The A1 receptor GTP shift binding assay is carried out using rat brain membranes and 0.4 nM [^3H] […] 10 μg of membrane protein are incubated at 37° C. for 20 min with 0.4 nM [^3H]DPCPX and adenosine A1 agonists in various concentrations in buffer (50 mM tris-HCl, pH 7.4, 2 U/ml ADA) in the presence and absence of 1 mM guanosine triphosphate (GTP). […] The radioactivity on the filter is measured with addition of 100 μl of scintillation cocktail in a Microbeta TriLux beta counter (PerkinElmer, Massachusetts, USA). […]

A short description of data set [2]: Determination of the solubility. Particulars: PEG 400/water solution (30:70 v/v), aqueous with cosolvent or surfactant or cyclodextrin, kinetic from dmso stock, PEG 400/water (30:70 v/v), 20° C., read-out: Solubility [mg/liter] PEG/water solution (30:70 v/v). The format is physicochemical. How it is done: B-8. Determination of the Solubility
• PBS buffer pH 6.5: 90.00 g of NaCl p.a. (for example from Merck, Art. No. 1.06404.1000), 13.61 g of KH2PO4 p.a. (for example from Merck, Art. No. 1.04873.1000) and 83.35 g of 1 N aqueous sodium hydroxide solution (for example from Bernd Kraft GmbH, Art. No. 01030.4000) are weighed into a 1 liter measuring flask, the flask is filled with distilled water to 1 liter and the mixture is stirred for 1 hour. Using 1 N hydrochloric acid (for example from Merck, Art. No. 1.09057.1000) the pH is then adjusted to 6.5. • PEG/water solution (30:70 v/v): 30 ml of polyethylene glycol 400 (for example from Merck, Art. No. 8.17003.1000) and 70 ml of distilled water are homogenized in a 100 ml measuring flask. • PEG/PBS buffer pH 6.5 (80:20 v/v): 80 ml of polyethylene glycol 400 (for example from Merck, Art. No. 8.17003.1000) and 20 ml of PBS buffer pH 6.5 are homogenized in a 100 ml measuring flask. • Dimethyl sulfoxide (for example from Baker, Art. No. 7157.2500) • Distilled water. Preparation of the Starting Solution (Original Solution):
At least 4 mg of the test substance are weighed accurately into a wide-necked 10 mm screw V vial (from Glastechnik Gräfenroda GmbH, Art. No. 8004-WM-H/V15μ) with fitting screw cap and septum, in a pipetting robot DMSO is added to a concentration of 50 mg/ml and the mixture is shaken for 10 minutes.
Preparation of the Calibration Solutions:
Preparation of the Starting Solution for Calibration Solutions (Stock Solution):
With the aid of a pipetting robot, 10 μl of the original solution are transferred into a microtiter plate and made up with DMSO to a concentration of 600 μg/ml. The sample is shaken until everything has gone into solution.
Calibration Solution 1 (20 μg/ml):
1000 μl of DMSO are added to 34.4 μl of the stock solution, and the mixture is homogenized.
Calibration Solution 2 (2.5 μg/ml):
700 μl of DMSO are added to 100 μl of calibration solution 1, and the mixture is homogenized.
Preparation of the Sample Solutions:
Sample Solution for Solubilities of Up to 5 g/liter in PBS Buffer pH 6.5:
10 μl of the original solution are transferred into a microtiter plate, and 1000 μl of PBS buffer pH 6.5 are added.
Sample Solution for Solubilities of Up to 5 g/liter in PEG/Water (30:70):
10 μl of the original solution are transferred into a microtiter plate, and 1000 μl of PEG/water (30:70) are added.
Sample Solution for Solubilities of Up to 5 g/liter in PEG/PBS Buffer pH 6.5 (80:20):
10 μl of the original solution are transferred into a microtiter plate, and 1000 μl of PEG/PBS buffer pH 6.5 (80:20) are added.
The sample solutions prepared in this manner are shaken at 1400 rpm in a temperature-adjustable shaker (for example Eppendorf Thermomixer comfort Art. No. 5355 000.011 with interchangeable block Art. No. 5362.000.019) at 20° C. for 24 hours. In each case 180 μl are taken from these solutions and transferred into Beckman Polyallomer Centrifuge Tubes (Art. No. 343621). These solutions are centrifuged at about 223 000×g for one hour (for example Beckman Optima L-90K Ultracentrifuge with Type 42.2 Ti Rotor at 42 000 rpm). From each of the sample solutions, 100 μl of the supernatant are removed and diluted 1:5 and 1:100 with DMSO. From each dilution, a sample is transferred into a vessel suitable for HPLC analysis.
The samples are analyzed by RP-HPLC. Quantification is carried out using a two-point calibration curve of the test compound in DMSO. The solubility is expressed in mg/liter. Analysis sequence: 1) calibration solution […]; 2) calibration solution […]; 3) sample solution 1:5; 4) sample solution 1:100. […]

A1 receptor, sequence (P25099 whole entry): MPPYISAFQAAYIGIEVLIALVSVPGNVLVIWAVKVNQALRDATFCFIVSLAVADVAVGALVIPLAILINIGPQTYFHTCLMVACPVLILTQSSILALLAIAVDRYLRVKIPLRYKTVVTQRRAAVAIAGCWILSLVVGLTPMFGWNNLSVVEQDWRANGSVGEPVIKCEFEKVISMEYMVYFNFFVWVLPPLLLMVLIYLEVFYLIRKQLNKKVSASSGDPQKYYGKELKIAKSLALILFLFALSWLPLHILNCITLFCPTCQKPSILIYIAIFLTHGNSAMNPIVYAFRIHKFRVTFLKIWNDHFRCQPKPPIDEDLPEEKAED

As to `CC(Sc1nc(N)c(C#N)c(-c2ccc(OCCO)cc2)c1C#N)c1cccc(C(N)=O)c1` (single isomer, unassigned) [Example 61, 3-[1-({6-Amino-3,5-dicyano-4-[4-(2-hydroxyethoxy)phenyl]pyridin-2-yl}sulfanyl)ethyl]benzenecarboxamide], in data set [1], the “GTP Shift” value came out at 1.5. In addition, in data set [2], the solubility at 24 h came out at 90 mg/L (≈ 196 µM).

For `COCCOc1ccc(-c2c(C#N)c(N)nc(SC(C)c3cccc(C(N)=O)c3)c2C#N)cc1` (single isomer, unassigned) [Example 64, 3-[1-({6-Amino-3,5-dicyano-4-[4-(2-methoxyethoxy)phenyl]pyridin-2-yl}sulfanyl)ethyl]benzenecarboxamide], the “GTP Shift” value in data set [1] is 2.8. Further, in data set [2], the solubility at 24 h was found to be 260 mg/L (≈ 549 µM).

The values above are taken from patent US9187428B2, “Substituted dicyanopyridines and use thereof” (Bayer Intellectual Property GmbH, priority 2010, dated 2015).
